Structures are written as SMILES.

Test [1] concerns the target pro-protein convertase of the subtype nine binding to recombinant LDLR-AB domain (Homo sapiens, UniProt Q8NBP7). Description: in vitro quantitative solid phase binding assay (ELISA) of the subtype nine pro-protein convertase to immobilized LDLR. On the procedure: The in vitro binding assay described hereinafter is a quantitative solid phase binding assay for determining the efficacy of the compounds. Plates were pre-coated with a recombinant LDLR-AB domain, which binds to the gene pro-protein convertase of the subtype nine. Test compound at different concentrations was added to the subtype gene and added to LDLR immobilized on the wells. The amount of bound gene is measured by binding it with biotinylated anti-His-tag monoclonal antibody, followed by binding with horseradish peroxidase conjugated streptavidin substrate. The color was quantified by ELISA reader at […] which reflects the relative amount of “the gene” that binds to LDLR in presence and absence of the inhibitor. EC50 values were calculated by nonlinear regression analysis using graph pad prism software. Each concentration point represents values in duplicates.
A general note: An ELISA detects its analyte on a solid surface through an enzyme-linked reagent.

The subject of a further test is High Fat Diet C57 Mice. As to the kind of experiment: LDL-C lowering activity in high fat diet C57 mice. It counts as in vivo. Conditions: C57 mice on high fat diet, dose 30 mg, orally once a day, day 28 of treatment. The method, then: The in-vivo LDL-c lowering for test compound was tested in C57 mice which were kept on high fat diet for 4 weeks and the blood was collected by retro-orbital sinus puncture method under light ether anesthesia on day 0 (pretreatment). Animal are grouped based on LDL-C levels, after that 4-6 week treatment with vehicle or test compound orally at a dose of 30 mpk dose once a day was given. On completion of treatment on day 28 of the treatment the blood was collected for LDL-C levels measurement. The percent change in LDL-C in test compound group Vs Vehicle group was calculated.

Sequence of pro-protein convertase of the subtype nine binding to recombinant LDLR-AB domain (Q8NBP7 153-692): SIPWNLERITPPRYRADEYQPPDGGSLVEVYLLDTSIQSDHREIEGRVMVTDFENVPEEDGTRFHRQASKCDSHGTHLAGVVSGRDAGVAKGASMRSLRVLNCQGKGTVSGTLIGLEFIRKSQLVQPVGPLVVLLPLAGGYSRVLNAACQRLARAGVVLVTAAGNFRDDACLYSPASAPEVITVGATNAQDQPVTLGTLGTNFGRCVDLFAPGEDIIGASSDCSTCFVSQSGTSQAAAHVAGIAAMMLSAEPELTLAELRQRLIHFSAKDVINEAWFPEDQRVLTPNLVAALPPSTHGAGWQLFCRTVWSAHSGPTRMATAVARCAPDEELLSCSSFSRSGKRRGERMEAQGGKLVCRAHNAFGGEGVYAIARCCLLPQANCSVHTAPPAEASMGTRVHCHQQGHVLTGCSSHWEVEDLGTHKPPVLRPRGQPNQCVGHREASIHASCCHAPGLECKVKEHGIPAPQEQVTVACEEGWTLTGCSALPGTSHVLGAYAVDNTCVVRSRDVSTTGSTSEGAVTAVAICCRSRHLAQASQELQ
Sequence of pro-protein convertase of the subtype nine binding to recombinant LDLR-AB domain (Q8NBP7 31-152 partner limits assumed): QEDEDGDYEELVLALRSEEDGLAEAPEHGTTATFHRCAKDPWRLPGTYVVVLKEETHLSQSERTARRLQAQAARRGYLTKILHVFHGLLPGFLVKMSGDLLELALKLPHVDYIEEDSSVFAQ

Broadly, the inhibition is how much of the control response was suppressed. As to `CC(=NOCc1ccc(C(F)(F)F)cc1)c1ccc(OCC(=O)NCC2CCOCC2)nc1` [Example 3, N-((tetrahydro-2H-pyran-4-yl)methyl)-2-((5-(1-(((4-(trifluoromethyl)benzyl)oxy)imino)ethyl)pyridin-2-yl)oxy)acetamide], the inhibition at 1 µM in test [1] (Concentration 1 μM) was found to be 28%. Besides, the inhibition at 10 µM in test [1] (Concentration 10 μM) was determined as 41%. In test [1] (Concentration 100 μM), the inhibition at 100 µM worked out at 54%. In the test with High Fat Diet C57 Mice, the “% Change Vs Vehicle Control LDL-C” value was −74.6 ± 2.0% and the “% Change Vs Vehicle Control TC” value is recorded as −33.6 ± 2.0%.
For `CC(=NOCc1ccc(C(F)(F)F)cc1)c1ccc(OCC(=O)NCC2CCOCC2)cc1` [Example 18, N-((tetrahydro-2H-pyran-4-yl)methyl)-2-(4-(1-(((4-(trifluoromethyl)benzyl)oxy)imino)ethyl)phenoxy)acetamide] the same measures were 16%, 38%, 63%, −75.2 ± 3.5% and −41.6 ± 1.9%.
`O=C(COc1ccc(C(CO)=NOCc2ccc(C(F)(F)F)cc2)cc1)NCC1CCOCC1` [Example 31, 2-(4-(2-hydroxy-1-(((4-(trifluoromethyl)benzyl)oxy)imino)ethyl)phenoxy)-N-((tetrahydro-2H-pyran-4-yl)methyl)acetamide]: in test [1] (Concentration 1 μM), the inhibition at 1 µM came to 15%. In addition, the inhibition at 10 µM in test [1] (Concentration 10 μM) stood at 20%. Moreover, the inhibition at 100 µM in test [1] (Concentration 100 μM) stood at 29%. Besides, in the test on High Fat Diet C57 Mice, the “% Change Vs Vehicle Control LDL-C” value was −30.6 ± 3.6% and the “% Change Vs Vehicle Control TC” value is recorded as −3.5 ± 3.4%.
Regarding `CCC(=NOCc1ccc(C(F)(F)F)cc1)c1ccc(OCC(=O)NCC2CCOCC2)cc1` [Example 1, N-((tetrahydro-2H-pyran-4-yl)methyl)-2-(4-(1-(((4-(trifluoromethyl)benzyl)oxy)imino)propyl)phenoxy)acetamide], the inhibition at 1 µM in test [1] (Concentration 1 μM) is 29%. The inhibition at 10 µM in test [1] (Concentration 10 μM) stood at 35%. In addition, in test [1] (Concentration 100 μM), the inhibition at 100 µM turned out to be 57%. Moreover, in the test with High Fat Diet C57 Mice, the “% Change Vs Vehicle Control LDL-C” value is listed as −48.8 ± 4.2% and the “% Change Vs Vehicle Control TC” value is reported as −11.8 ± 2.7%.
For `CCC(=NOCc1ccc(C(F)(F)F)cc1)c1ccc(OCC(=O)NCC2CCOCC2)nc1` [Example 22, N-((tetrahydro-2H-pyran-4-yl)methyl)-2-((5-(1-(((4-(trifluoromethyl)benzyl)oxy)imino)propyl)pyridin-2-yl)oxy)acetamide], in that order: 29%, 46%, 46%, −64.6 ± 4.1% and −21.5 ± 2.8%.
In the case of `CCC(=NOCc1ccc(C(F)(F)F)cc1)c1ccc(NCC(=O)NCC2CCOCC2)cc1` [Example 5, N-((tetrahydro-2H-pyran-4-yl)methyl)-2-((4-(1-(((4-(trifluoromethyl)benzyl)oxy)imino)propyl)phenyl)amino)acetamide], in test [1] (Concentration 1 μM), the inhibition at 1 µM turned out to be 34%. Moreover, in test [1] (Concentration 10 μM), the inhibition at 10 µM came out at 40%. Also, in test [1] (Concentration 100 μM), the inhibition at 100 µM was determined as 50%.
With `COCC(=NOCc1ccc(C(F)(F)F)cc1)c1ccc(OCC(=O)NCC2CCOCC2)cc1` [Example 30, 2-(4-(2-methoxy-1-(((4-(trifluoromethyl)benzyl)oxy)imino)ethyl)phenoxy)-N-((tetrahydro-2H-pyran-4-yl)methyl)acetamide], in test [1] (Concentration 100 μM), the inhibition at 100 µM was 36%.
Regarding `O=C(COc1ccc(C=NOCc2ccc(C(F)(F)F)cc2)cn1)NCC1CCOCC1` [Example 19, N-((tetrahydro-2H-pyran-4-yl)methyl)-2-((5-((((4-(trifluoromethyl)benzyl)oxy)imino)methyl)pyridin-2-yl)oxy)acetamide], the inhibition at 10 µM in test [1] (Concentration 10 μM) is 40%. For the same molecule, the inhibition at 100 µM in test [1] (Concentration 100 μM) is 46%.
On to `CCC(=NOCc1ccccc1)c1ccc(OCC(=O)NCC2CCOCC2)nc1` [Example 24, 2-((5-(1-((benzyloxy)imino)propyl)pyridin-2-yl)oxy)-N-((tetrahydro-2H-pyran-4-yl)methyl)acetamide], for which, in test [1] (Concentration 1 μM), the inhibition at 1 µM stood at 24%. The inhibition at 10 µM in test [1] (Concentration 10 μM) came out at 28%. Also, in test [1] (Concentration 100 μM), the inhibition at 100 µM was 52%.
For `O=C(COc1ccc2c(c1)CCCC2=NOCc1ccc(C(F)(F)F)cc1)NCC1CCOCC1` [Example 48, N-((tetrahydro-2H-pyran-4-yl)methyl)-2-((5-(((4-(trifluoromethyl)benzyl)oxy)imino)-5,6,7,8-tetrahydronaphthalen-2-yl)oxy)acetamide] the same measures were 17%, 42% and 64%.
For `O=C(COc1ccc(C(CN2CCSCC2)=NOCc2ccc(C(F)(F)F)cc2)cc1)NCC1CCOCC1` [Example 15, N-((tetrahydro-2H-pyran-4-yl)methyl)-2-(4-(2-thiomorpholino-1-(((4-(trifluoromethyl)benzyl)oxy)imino)ethyl)phenoxy)acetamide] the same measures were 25%, 37% and 39%.
With `O=C(COc1ccc(C(Cc2ccccc2)=NOCc2ccccn2)cc1)NCC1CCOCC1` [Example 43, 2-(4-(2-phenyl-1-((pyridin-2-ylmethoxy)imino)ethyl)phenoxy)-N-((tetrahydro-2H-pyran-4-yl)methyl)acetamide], in test [1] (Concentration 10 μM), the inhibition at 10 µM turned out to be 15%. In addition, the inhibition at 100 µM in test [1] (Concentration 100 μM) worked out at 27%.
As for `Cc1cc(C(Cc2ccsc2)=NOCc2ccc(C(F)(F)F)cc2)ccc1OCC(=O)NCC1CCOCC1` [Example 16, 2-(2-methyl-4-(2-(thiophen-3-yl)-1-(((4-(trifluoromethyl)benzyl)oxy)imino)ethyl)phenoxy)-N-((tetrahydro-2H-pyran-4-yl)methyl)acetamide], the inhibition at 1 µM in test [1] (Concentration 1 μM) is 10%. In test [1] (Concentration 5 μM), the inhibition at 5 µM was determined as 21%. Further, the inhibition at 10 µM in test [1] (Concentration 10 μM) came to 35%. In test [1] (Concentration 100 μM), the inhibition at 100 µM amounted to 61%.
In the case of `CCC(=NOCc1ccc(S(C)(=O)=O)cc1)c1ccc(OCC(=O)NCC2CCOCC2)cc1` [Example 42, 2-(4-(1-(((4-(methylsulfonyl)benzyl)oxy)imino)propyl)phenoxy)-N-((tetrahydro-2H-pyran-4-yl)methyl)acetamide], the inhibition at 10 µM in test [1] (Concentration 10 μM) is 9%. Further, the inhibition at 100 µM in test [1] (Concentration 100 μM) stood at 51%.
For orientation: % Inhibition means the percentage by which the read-out fell short of the control. With `Cc1cc(C(Cc2ccccc2)=NOCc2ccc(Cl)cc2)ccc1OCC(=O)NCC1CCOCC1` [Example 36], the entries for the “% Inhibition” value in test [1] (Concentration 1 μM), in test [1] (Concentration 10 μM) and in test [1] (Concentration 100 μM) were 6%, 9% and 36%, respectively.
